Experiments:
[1] = test system: M2-10B4 mouse marrow stromal cell line; assay: Alkaline phosphatase (ALP) activity assay in M2 cells; type: cell-based; settings: for induction of alkaline phosphatase activity: 10 μM oxysterols, osteogenic medium, 3 days (FIG. 3A); for dose- and time-dependence of induction of alkaline phosphatase activity: concentrations between 0.5-10 μM; for alkaline phosphatase activity: ligands used at 10 μM, ±SD, control vehicle C: 18±2, p<0.01 for C vs. all ligands
Protocol: Cells: M2-10B4 mouse marrow stromal cell line obtained from American Type Culture Collection (ATCC, Rockville, Md., U.S.A.) was derived from bone marrow stromal cells of a (C57BL/6J×C3H/HeJ) F1 mouse, and support human and murine myelopoiesis in long-term cultures (as per ATCC) and have the ability to differentiate into osteoblastic and adipocytic cells. Unless specified, these cells were cultured in RPMI 1640 containing 10% heat-inactivated FBS, and supplemented with 1 mM sodium pyruvate, 100 U/ml penicillin, and 100 […] (all from Irvine Scientific).
Alkaline phosphatase activity assay: Colorimetric alkaline phosphatase (ALP) activity assay on whole cell extracts was performed as previously described. […]
Test 2: M2 cells were grown in RPMI medium containing 10% fetal bovine serum (FBS). At confluence, the cells were treated in RPMI containing 5% FBS plus ascorbate at 50 μg/ml and β-glycerophosphate at 3 mM to induce osteoblastic differentiation. Adipogenic differentiation was induced by treating the cells in growth medium plus 10 ˜M troglitazone. A vehicle (C) or oxysterol treatment was applied to cells in a variety of doses (in μM): 20S-Hydroxycholesterol, 25-Hydroxycholesterol, 22R-Hydroxycholesterol; 22S-Hydroxycholesterol; 7-ketocholesterol. Cells were always treated at 90% confluence. After 4 days, alkaline phosphatase activity was determined in whole cell lysates and normalized to protein. Alternatively, MSC cultures were prepared and treated with oxysterols as described above. Cells were treated at 90% confluence with the combination of 22R-Hydroxycholesterol and 20S-Hydroxycholesterol, each at 5 μM, for 4 to 96 hours. The oxysterols where removed and fresh media without oxysterols was added for a total duration of 96 hours. Alkaline phosphatase activity was measured in whole cell extracts and normalized to protein.
M2 cells were treated at 90% confluence with vehicle (C), or oxysterols 20S-Hydroxycholesterol or 22S-Hydroxycholesterol at (0.5 μM) or (1 μM), in the absence or presence of cytochrome P450 inhibitor (SKF525A 10 μM (+)). MSC cultures were also treated at 90% confluence with vehicle (C), or 20S-Hydroxycholesterol (2 μM), in the absence or presence of cytochrome P450 […] (Benzylimidazole 50 μM) or SKF525A (10 μM). After 4 days, alkaline phosphatase activity was measured in whole cell extracts and normalized to protein. […]

[2] = test system: osteocalcin mRNA in M2 cells; assay: Northern blotting for osteocalcin mRNA in M2 cells; type: cell-based, mouse; settings: 0.5-10 μM, as many as 14 days, data not shown
Protocol: The extent of gene induction was determined by densitometry.
After 4 and 8 days, total RNA from duplicate samples was isolated and analyzed for osteocalcin (Osc) and 28S rRNA expression by Northern blotting as described. FIG. 3E is a radiogram of Northern blotting for osteocalcin mRNA in M2 cells exposed to a control or combination of oxysterols for 4 or 8 days. FIG. 3F is a bar graph depicting the relative demsometric units of osteocalcin mRNA in M2 cells exposed to a control or combination of oxysterols for 4 or 8 days. Data from densitometric analysis of the Northern blot is shown in (F) as the average of duplicate samples, normalized to 28S rRNA.
Next, a combination of 22R and 20S oxysterols (RS, 2.5 μM each) were added in the presence or absence of SC as indicated. After 3 days, ALP activity was measured as described earlier. […] (B) M2 cells were treated as described in (A) and after 10 days matrix mineralization in cultures was quantified by a ^45Ca incorporation assay as described earlier. Results from a representative of three experiments are shown, reported as the mean±SD of quadruplicate determinations, normalized to protein concentration. (C) M2 cells were pretreated with 20 μM SC for 4 hours, followed by the addition of RS in the presence or absence of SC as described above. After 8 days, total RNA was isolated and analyzed for osteocalcin (Osc) and 18S rRNA expression by Northern blotting as previously described. Data from densitometric analysis of the Northern blot is shown in (D) as the average of duplicate samples, normalized to 18S rRNA. (E) M2 cells at confluence were pretreated for 2 hours with control vehicle (C), or PLA2 inhibitors ACA (25 μM) and MCOCF3 (MC, 20 μM), in osteogenic medium. Next, a combination of 22R and 20S oxysterols (RS, 2.5 μM) was added in the presence or absence of the inhibitors as indicated. After 3 days, ALP activity was measured as previously described. Data from a representative of three experiments are shown, reported as the mean±SD of quadruplicate determinations, normalized to protein concentration (p<0.01 for RS vs. RS+ACA and RS+MC). (F) M2 cells were treated as described in (E).

M2 cells = assay: Adipogenesis of M2 cells, oil Red O staining and adipocyte count; type: cell-based, mouse; settings: 10 μM Tro, 10 μM oxysterols, alone or in combination, 10 days (FIG. 7)
Protocol: Von Kossa and oil red O staining—Matrix mineralization in cell monolayers was detected by silver nitrate staining as previously described. Oil red O staining for detection of adipocytes was performed as previously described.
Test 1: M2 cells at 90% confluence were treated with vehicle (C), PPAR-γ activator, troglitazone 10 uM (Tro), alone or in combination with 10 μM oxysterols 20S-, 22R-, or 25S-hydroxycholesterol. After 8 days, adipocytes were identified by oil Red O staining and quantified by counting under a phase contrast microscope. FIG. 6A is a bar graph depicting the effect of oxysterols on reducing adipogenesis of MSC.
Test 2: (A) M2 cells at confluence were treated in RPMI containing 10% FBS with control vehicle or 10 μM troglitazone (Tro) in the absence or presence of 10 μM 20S or 22S oxysterols. After 10 days, adipocytes were visualized by oil Red O staining and quantified by light microscopy, shown in (B). Data from a representative of four experiments are shown, reported as the mean SD of quadruplicate determinations (p<0.001 for Tro vs. Tro+20S and Tro+22S). (C) M2 cells were treated at confluence with 10 μM Tro, alone or in combination with 10 μM 20S oxysterol. After 10 days, total RNA was isolated and analyzed for lipoprotein lipase (LPL), adipocyte P2 gene (aP2) or 18S rRNA expression by Northern blotting as described (Ref). Data from densitometric analysis of the Northern blot is shown in (D) as the average of duplicate samples, normalized to 18S rRNA.

Structure (SMILES)	induction of alkaline phosphatase activity [1]	dose- and time-dependence of induction of alkaline phosphatase activity [1]	alkaline phosphatase activity [1] [activity units/mg protein]	induction of osteocalcin gene expression, individual oxysterols [2]	adipogenesis induced by troglitazone (M2 cells)
CC(C)CCC[C@](C)(O)[C@H]1CC[C@H]2[C@@H]3CC=C4C[C@@H](O)CC[C@]4(C)[C@H]3CC[C@@]21C [20S, 20(S)-hydroxycholesterol]	induced	dose- and time-dependent	140±12	unable to induce	inhibited adipogenesis
CC(C)CC[C@@H](O)[C@@H](C)[C@H]1CC[C@H]2[C@@H]3CC=C4C[C@@H](O)CC[C@]4(C)[C@H]3CC[C@]12C [22R, 22(R)-hydroxycholesterol]	induced	dose- and time-dependent	45±5	unable to induce	inhibited adipogenesis
CC(C)CC[C@H](O)[C@@H](C)[C@H]1CC[C@H]2[C@@H]3CC=C4C[C@@H](O)CC[C@]4(C)[C@H]3CC[C@]12C [22S, 22(S)-hydroxycholesterol]	induced	dose- and time-dependent	–	unable to induce	inhibited adipogenesis

Reference: patent publication US9532994B2, “Agents and methods for enhancing bone formation by oxysterols in combination with bone morphogenic proteins” (THE REGENTS OF THE UNIVERSITY OF CALIFORNIA, priority 2003, dated 2017)
